Experimental data published in PubChem BioAssay (NCI).
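The compound was tested at five concentrations on cells cultured in 96-well plates, with a 48-hour exposure period. At the TGI there is no net growth.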

Assays:
Test in all cases: DTP human tumour cell line panel, 48 h
[1] = test system: 786-0 renal
[2] = test system: A498 renal
[3] = test system: A549 NSCLC
[4] = test system: ACHN renal
[5] = test system: CAKI-1 renal
[6] = test system: CCRF-CEM leukemia
[7] = test system: COLO 205 colon
[8] = test system: DLD-1 colon
[9] = test system: DMS 114 small cell lung
[10] = test system: DMS 273 small cell lung
[11] = test system: EKVX NSCLC
[12] = test system: HCC-2998 colon
[13] = test system: HCT-116 colon
[14] = test system: HCT-15 colon
[15] = test system: HL-60(TB) leukemia
[16] = test system: HOP-18 NSCLC
[17] = test system: HOP-62 NSCLC
[18] = test system: HOP-92 NSCLC
[19] = test system: HT29 colon
[20] = test system: IGROV1 ovarian
[21] = test system: K-562 leukemia
[22] = test system: KM12 colon
[23] = test system: KM20L2 colon
[24] = test system: LOX IMVI melanoma
[25] = test system: LXFL 529 NSCLC
[26] = test system: M14 melanoma
[27] = test system: M19-MEL melanoma
[28] = test system: MALME-3M melanoma
[29] = test system: MOLT-4 leukemia
[30] = test system: NCI-H226 lung
[31] = test system: NCI-H23 lung
[32] = test system: NCI-H460 lung
[33] = test system: NCI-H522 lung
[34] = test system: OVCAR-3 ovarian
[35] = test system: OVCAR-4 ovarian
[36] = test system: OVCAR-5 ovarian
[37] = test system: OVCAR-8 ovarian
[38] = test system: RPMI-8226 leukemia
[39] = test system: SF-268 CNS
[40] = test system: SF-295 CNS
[41] = test system: SF-539 CNS
[42] = test system: SK-MEL-2 melanoma
[43] = test system: SK-MEL-28 melanoma
[44] = test system: SK-MEL-5 melanoma
[45] = test system: SK-OV-3 ovarian
[46] = test system: SN12C renal
[47] = test system: SNB-19 CNS
[48] = test system: SNB-75 CNS
[49] = test system: SNB-78 CNS
[50] = test system: SR leukemia
[51] = test system: SW-620 colon
[52] = test system: TK-10 renal
[53] = test system: U251 CNS
[54] = test system: UACC-257 melanoma
[55] = test system: UACC-62 melanoma
[56] = test system: UO-31 renal

Measured: TGI

COC(=O)C1CC(=O)CCC1c1ccccc1 (stereo unspecified)
> 100 µM: all assays above
